Test results taken from article doi:10.1101/2025.03.25.645215v1 (biorxiv, 2025).

These compounds were tested against T1, B^0AT2/SLC6A15 (eGFP-hSLC6A15) (Homo sapiens, UniProt Q9H2J7) (assay: cell-based). Details: not given.
T1 sequence (Q9H2J7 1-730): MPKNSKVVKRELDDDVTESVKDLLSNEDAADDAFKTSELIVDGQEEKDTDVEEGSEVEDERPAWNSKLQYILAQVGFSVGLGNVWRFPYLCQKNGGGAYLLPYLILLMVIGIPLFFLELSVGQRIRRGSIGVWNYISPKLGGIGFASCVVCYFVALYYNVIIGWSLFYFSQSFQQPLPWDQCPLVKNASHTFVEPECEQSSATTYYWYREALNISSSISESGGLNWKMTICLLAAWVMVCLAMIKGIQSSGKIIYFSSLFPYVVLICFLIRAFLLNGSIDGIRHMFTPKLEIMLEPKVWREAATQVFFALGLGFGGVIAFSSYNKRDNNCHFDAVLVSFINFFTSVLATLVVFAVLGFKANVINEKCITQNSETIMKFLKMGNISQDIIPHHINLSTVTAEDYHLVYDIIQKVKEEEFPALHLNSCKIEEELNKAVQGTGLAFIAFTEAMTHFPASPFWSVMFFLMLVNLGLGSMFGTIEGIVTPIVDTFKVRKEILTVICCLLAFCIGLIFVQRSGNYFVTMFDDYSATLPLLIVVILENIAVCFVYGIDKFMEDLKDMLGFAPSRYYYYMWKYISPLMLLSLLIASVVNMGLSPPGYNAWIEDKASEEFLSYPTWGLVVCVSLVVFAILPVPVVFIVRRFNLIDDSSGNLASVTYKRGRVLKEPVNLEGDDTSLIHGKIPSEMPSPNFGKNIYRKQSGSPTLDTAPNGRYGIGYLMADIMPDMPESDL
Design: species or system HEK293 eGFP-hSLC6A15
Compound `O=C1CC(c2ccccc2)CC2=C1C(c1ccccc1)N(C(=O)c1ccccc1)c1ccccc1N2` (stereo not shown) [14a] has an IC50 of 1100 ± 100 nM. For `COc1ccc(C2CC(=O)C3=C(C2)Nc2ccccc2N(C(=O)c2ccccc2)C3c2ccccc2)cc1` (stereo not shown) [14b], the IC50 was 1000 ± 100 nM. Compound `Cc1ccc(C2C3=C(CC(c4ccccc4F)CC3=O)Nc3ccccc3N2C(=O)c2ccccc2)cc1` (stereo not shown) [14l] has an IC50 of over 80000 nM. `Cc1ccc(C2C3=C(CC(c4cccc(Cl)c4)CC3=O)Nc3ccccc3N2C(=O)c2ccccc2)cc1` (stereo not shown) [14k] was tested, and the IC50 was over 80000 nM. `COc1cccc(C2C3=C(CC(c4ccccc4)CC3=O)Nc3ccccc3N2C(=O)c2ccccc2)c1` (stereo not shown) [14h] was tested, and the IC50 was over 80000 nM. `CC1CC(=O)C2=C(C1)Nc1ccccc1N(C(=O)c1ccccc1)C2c1cc(F)cc(F)c1` (stereo not shown) [14m] was tested, and the IC50 was 700 ± 50 nM. In the case of `COc1ccc(C2CC(=O)C3=C(C2)Nc2ccccc2N(C(=O)c2ccccc2)C3c2ccc(OC)cc2)cc1` (stereo not shown) [14e], the IC50 is reported as 1200 ± 200 nM. Work on `Cc1ccc(C2C3=C(CC(c4ccc(Cl)cc4)CC3=O)Nc3ccccc3N2C(=O)c2ccccc2)cc1` (stereo not shown) [14j] yielded an IC50 of over 80000 nM. `COc1ccc(C2C3=C(CC(c4ccc(C)cc4)CC3=O)Nc3ccccc3N2C(=O)c2ccccc2)cc1OC` (stereo not shown) [14g] showed an IC50 of 2100 ± 500 nM. With `COc1ccc(C2CC(=O)C3=C(C2)Nc2ccccc2N(C(=O)c2ccccc2)C3c2cccc(OC)c2)cc1` (stereo not shown) [14i] the IC50 was over 80000 nM.

Target: T1, B^0AT2/SLC6A15 (eGFP-hSLC6A15)
Assay: cell-based
Design: species or system HEK293 eGFP-hSLC6A15
Details: not given
Remark: another data set of the same source
With `CN(C)c1ccc(C2C3=C(CC(C)(C)CC3=O)Nc3ccccc3N2C(=O)c2ccccc2)cc1` (stereo not shown) [11l] the IC50 was 10600 ± 1700 nM. `CCOc1cc(C2C3=C(CC(C)(C)CC3=O)Nc3ccccc3N2C(=O)c2ccccc2)ccc1OCc1ccc(Cl)cc1` (stereo not shown) [11aa] showed an IC50 of over 80000 nM. Work on `CC(C)Oc1ccc(C2C3=C(CC(C)(C)CC3=O)Nc3ccccc3N2C(=O)c2ccccc2)cc1` (stereo not shown) [11h] yielded an IC50 of 1100 ± 100 nM. `COc1cc(C2C3=C(CC(C)(C)CC3=O)Nc3ccccc3N2C(=O)c2ccccc2)cc(OC)c1OC` (stereo not shown) [11ab] showed an IC50 of 11300 ± 14900 nM. `CC1(C)CC(=O)C2=C(C1)Nc1ccccc1N(C(=O)c1ccccc1)C2c1ccc(F)cc1` (stereo not shown) [11b] was tested, and the IC50 was 2000 ± 200 nM. Compound `CC1(C)CC(=O)C2=C(C1)Nc1ccccc1N(C(=O)c1ccccc1)C2c1ccccc1F` (stereo not shown) [11s] has an IC50 of 19900 ± 8900 nM. `COc1ccc(C2C3=C(CC(C)(C)CC3=O)Nc3ccccc3N2C(=O)c2ccccc2)cc1OC` (stereo not shown) [11w] was tested, and the IC50 was 7100 ± 2300 nM. Work on `CCOc1ccc(C2C3=C(CC(C)(C)CC3=O)Nc3ccccc3N2C(=O)c2ccccc2)cc1` (stereo not shown) [11g] yielded an IC50 of 500 ± 50 nM. `CC1(C)CC(=O)C2=C(C1)Nc1ccccc1N(C(=O)c1ccccc1)C2c1ccc(Cl)c(Cl)c1` (stereo not shown) [11z] was tested, and the IC50 was 2300 ± 400 nM. In the case of `COc1ccccc1C1C2=C(CC(C)(C)CC2=O)Nc2ccccc2N1C(=O)c1ccccc1` (stereo not shown) [11u], the IC50 is reported as over 60000 nM. `CC1(C)CC(=O)C2=C(C1)Nc1ccccc1N(C(=O)c1ccccc1)C2c1ccccc1` (stereo not shown) [11a] gave an IC50 of 1200 ± 100 nM. Work on `CCCOc1cccc(C2C3=C(CC(C)(C)CC3=O)Nc3ccccc3N2C(=O)c2ccccc2)c1` (stereo not shown) [11q] yielded an IC50 of 720 ± 70 nM. `CC1(C)CC(=O)C2=C(C1)Nc1ccccc1N(C(=O)c1ccccc1)C2c1cccc(F)c1` (stereo not shown) [11o] gave an IC50 of 22900 ± 14700 nM. With `CCCCCOc1ccc(C2C3=C(CC(C)(C)CC3=O)Nc3ccccc3N2C(=O)c2ccccc2)cc1` (stereo not shown) [11j] the IC50 was 1200 ± 100 nM. `CC1(C)CC(=O)C2=C(C1)Nc1ccccc1N(C(=O)c1ccccc1)C2c1ccc(C(F)(F)F)cc1` (stereo not shown) [11k] showed an IC50 of 2000 ± 200 nM. For `CCCOc1ccc(C2C3=C(CC(C)(C)CC3=O)Nc3ccccc3N2C(=O)c2ccccc2)cc1OC` (stereo not shown) [11y], the IC50 was 1100 ± 100 nM. Compound `CC1(C)CC(=O)C2=C(C1)Nc1ccccc1N(C(=O)c1ccccc1)C2c1ccccc1Cl` (stereo not shown) [11t] has an IC50 of over 40000 nM. In the case of `CC1(C)CC(=O)C2=C(C1)Nc1ccccc1N(C(=O)c1ccccc1)C2c1ccc(Br)cc1` (stereo not shown) [11d], the IC50 is reported as 740 ± 70 nM. Compound `COc1cccc(C2C3=C(CC(C)(C)CC3=O)Nc3ccccc3N2C(=O)c2ccccc2)c1` (stereo not shown) [11p] has an IC50 of 3200 ± 500 nM. `COC(=O)c1ccc(C2C3=C(CC(C)(C)CC3=O)Nc3ccccc3N2C(=O)c2ccccc2)cc1` (stereo not shown) [11m] gave an IC50 of 1800 ± 300 nM. Work on `CC(=O)Oc1cccc(C2C3=C(CC(C)(C)CC3=O)Nc3ccccc3N2C(=O)c2ccccc2)c1` (stereo not shown) [11r] yielded an IC50 of 640 ± 70 nM. With `CC1(C)CC(=O)C2=C(C1)Nc1ccccc1N(C(=O)c1ccccc1)C2c1ccc(C#N)cc1` (stereo not shown) [11e] the IC50 was 730 ± 40 nM. Compound `CC1(C)CC(=O)C2=C(C1)Nc1ccccc1N(C(=O)c1ccccc1)C2c1ccc(Cl)cc1` (stereo not shown) [11c] has an IC50 of 900 ± 100 nM. `CCCCOc1ccc(C2C3=C(CC(C)(C)CC3=O)Nc3ccccc3N2C(=O)c2ccccc2)cc1` (stereo not shown) [11i] gave an IC50 of 580 ± 30 nM. `COc1ccc(C2C3=C(CC(C)(C)CC3=O)Nc3ccccc3N2C(=O)c2ccccc2)cc1` (stereo not shown) [11f] was tested, and the IC50 was 400 ± 30 nM.

Same assay, conditions: read-out: B^0AT2 IC50; inhibitor
With `COc1c(Cl)cc(Cl)cc1C1C2=C(CC(C)(C)CC2=O)Nc2ccccc2N1C(=O)c1ccccc1` (stereo not shown) [11ac] the IC50 was over 80000 nM.

Target: T1, B^0AT2/SLC6A15 (eGFP-hSLC6A15)
Assay: cell-based
Design: species or system HEK293 eGFP-hSLC6A15
Details: not given
Remark: another data set of the same source
For `COc1ccc(C2C3=C(CC(C)(C)CC3=O)Nc3ccccc3N2C(=O)c2ccc(Cl)cc2)cc1OC` (stereo not shown) [13g], the IC50 was over 80000 nM. With `COc1ccc(C2C3=C(CC(C)CC3=O)Nc3ccccc3N2C(=O)c2ccc(F)cc2)cc1` (stereo not shown) [13f] the IC50 was 9000 ± 11000 nM. Work on `CC1(C)CC(=O)C2=C(C1)Nc1ccccc1N(Cc1ccccc1)C2c1ccccc1` (stereo not shown) [13d] yielded an IC50 of over 80000 nM. `O=C1CCCC2=C1C(c1ccccc1)N(C(=O)C1CCCCC1)c1ccccc1N2` (stereo not shown) [13k] was tested, and the IC50 was over 80000 nM. Work on `CCCCOc1ccc(C2C3=C(CC(C)(C)CC3=O)Nc3ccccc3N2C(=O)c2ccccc2F)cc1` (stereo not shown) [13e] yielded an IC50 of 1400 ± 100 nM. In the case of `Cc1ccc(C(=O)N2c3ccccc3NC3=C(C(=O)CCC3)C2c2ccccc2)cc1` (stereo not shown) [13i], the IC50 is reported as over 80000 nM. Compound `O=C1CCCC2=C1C(c1ccccc1)N(C(=O)c1ccc(Cl)cc1)c1ccccc1N2` (stereo not shown) [13h] has an IC50 of over 80000 nM. In the case of `COc1ccc(C(=O)N2c3ccccc3NC3=C(C(=O)CCC3)C2c2ccccc2)cc1` (stereo not shown) [13j], the IC50 is reported as over 80000 nM. `O=C1CCCC2=C1C(c1ccccc1)N(C(=O)c1ccc3ccccc3c1)c1ccccc1N2` (stereo not shown) [13m] gave an IC50 of over 80000 nM. `O=C1CCCC2=C1C(c1ccccc1)N(C(=O)c1ccco1)c1ccccc1N2` (stereo not shown) [13l] gave an IC50 of over 55000 nM. With `CC1(C)CC(=O)C2=C(C1)Nc1ccccc1NC2c1ccccc1` (stereo not shown) [13c] the IC50 was over 80000 nM. Work on `COc1cc(C2Nc3ccccc3NC3=C2C(=O)CCC3)ccc1O` (stereo not shown) [13a] yielded an IC50 of over 80000 nM.

Same assay, conditions: read-out: B^0AT2 IC50; inhibitor
Compound `CCOc1cc(C2C3=C(CCCC3=O)Nc3ccccc3N2C(=O)CC)ccc1O` (stereo not shown) [13b] has an IC50 of over 80000 nM.

Target: T1, B^0AT2/SLC6A15 (eGFP-hSLC6A15)
Assay: cell-based
Design: species or system HEK293 eGFP-hSLC6A15
Details: not given
Remark: another data set of the same source
With `CC1(C)CC(=O)C2=C(C1)Nc1ccccc1N(C(=O)c1ccccc1)C2c1c[nH]c2ccccc12` (stereo not shown) [12h] the IC50 was over 30000 nM. Work on `O=C1CCCC2=C1C(c1cccnc1)N(C(=O)c1ccccc1)c1ccccc1N2` (stereo not shown) [12a] yielded an IC50 of 1600 ± 300 nM. In the case of `O=C1CCCC2=C1C(c1ccco1)N(C(=O)c1ccccc1)c1ccccc1N2` (stereo not shown) [12b], the IC50 is reported as 5100 ± 2000 nM. `Cn1cccc1C1C2=C(CC(C)(C)CC2=O)Nc2ccccc2N1C(=O)c1ccccc1` (stereo not shown) [12g] showed an IC50 of over 80000 nM. With `CC1(C)CC(=O)C2=C(C1)Nc1ccccc1N(C(=O)c1ccccc1)C2c1cccnc1` (stereo not shown) [12c] the IC50 was 1900 ± 400 nM. For `CC1(C)CC(=O)C2=C(C1)Nc1ccccc1N(C(=O)c1ccccc1)C2c1ccccn1` (stereo not shown) [12d], the IC50 was 3900 ± 800 nM. `CC1(C)CC(=O)C2=C(C1)Nc1ccccc1N(C(=O)c1ccccc1)C2c1ccco1` (stereo not shown) [12e] was tested, and the IC50 was 1300 ± 100 nM. Compound `Cc1ccc(C2C3=C(CC(C)(C)CC3=O)Nc3ccccc3N2C(=O)c2ccccc2)o1` (stereo not shown) [12f] has an IC50 of 2600 ± 200 nM.

Same assay, conditions: read-out: B^0AT2 IC50; inhibitor
`CC1(C)CC(=O)C2=C(C1)Nc1ccccc1N(C(=O)c1ccccc1)C2c1ccc(-c2ccc(Br)cc2)o1` (stereo not shown) [12i] was tested, and the IC50 was over 80000 nM.
